Data as given in US11046716B2, “Beta-lactamase inhibitors” (priority 2015, dated 2021).

Tests used:
[1] = system: K. pneumoniae expressing the class A carbapenemase KPC-2 and the class B carbapenemase VIM-4; assay: Broth microdilution MIC assay with meropenem, K. pneumoniae KPC-2 and VIM-4; format: cell-based; details: Fixed Mero (meropenem) 4 μg/mL; K. p. A-1797 KPC-2 VIM-4
Method in brief: (§1)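 CLSI broth microdilution in cation-adjusted Mueller Hinton broth measured growth of β-lactamase-expressing strains, grown 3-5 h beforehand. The β-lactam partner was held at 4 μg/ml final while test compound was titrated 2-fold from 16 to 0.125 μg/mL final. After 16-20 h at 37° C, the compound MIC was determined by eye.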

VIM-2 = target: T1, VIM-2 (Escherichia coli, UniProt Q5U7L7); assay: β-lactamase enzyme inhibition assay, VIM-2 (nitrocefin substrate); format: biochemical; details: Class B; nitrocefin substrate, 486 nm; read-out: VIM-2
T1 construct: made in house; host or cells: E. coli BL21(DE3)
Method in brief: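 Nitrocefin hydrolysis (100 μM final, A486 read for 10 min) by purified VIM-2 after a 15-min, 37° C enzyme–inhibitor preincubation. IC50 is the concentration halving initial hydrolysis rate, derived from percent inhibition against no-inhibitor wells.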

[2] = system: K. pneumoniae expressing the Class A carbapenemase KPC-2; assay: Broth microdilution MIC assay with meropenem, K. pneumoniae KPC-2; format: cell-based; details: Fixed Mero (meropenem) 4 μg/mL; K. p. 156319 KPC-3
Method in brief: as §1

[3] = system: E. coli expressing the Class A Extended Spectrum Beta-Lactamase (ESBL) CTX-M-15; assay: Broth microdilution MIC assay with ceftazidime, E. coli CTX-M-15; format: cell-based; details: Fixed CAZ (ceftazidime) 4 μg/mL; E. coli ESBL4 CTX-M-15
Method in brief: as §1

KPC-2 = target: T2, KPC-2 (Klebsiella pneumoniae, UniProt Q9F663); assay: β-lactamase enzyme inhibition assay, KPC-2 (imipenem substrate); format: biochemical; details: Class A; imipenem substrate, 300 nm; read-out: KPC-2
T2 construct: made in house; host or cells: E. coli BL21(DE3)
T2 sequence (Q9F663 25-293, looked up): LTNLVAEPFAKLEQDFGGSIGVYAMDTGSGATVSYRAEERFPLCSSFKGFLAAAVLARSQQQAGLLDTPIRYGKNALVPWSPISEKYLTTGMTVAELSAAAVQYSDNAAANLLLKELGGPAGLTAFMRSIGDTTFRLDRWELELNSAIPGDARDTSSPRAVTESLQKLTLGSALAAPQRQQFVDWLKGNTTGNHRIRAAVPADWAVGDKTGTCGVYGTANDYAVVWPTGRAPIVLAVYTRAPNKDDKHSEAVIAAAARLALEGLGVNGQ
Method in brief: (§2)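 Untagged enzyme from E. coli BL21(DE3), purified by Capto S then Superdex 75; 15 min 37 °C preincubation with inhibitor; KPC-2 read with imipenem at 300 nm, SHV-5 with cefotaxime at 260 nm, OXA-1 with nitrocefin 100 μM final at 486 nm; 10 min kinetic read; IC50 vs uninhibited wells.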

[4] = system: P. aeruginosa expressing the Class B carbapenemase VIM-2; assay: Broth microdilution MIC assay with meropenem, P. aeruginosa VIM-2; format: cell-based; details: Fixed Mero (meropenem) 4 μg/mL; P. aerug. 2775 VIM-2
Method in brief: as §1

AmpC = target: T3, AmpC (Enterobacter cloacae, UniProt P05364); assay: β-lactamase enzyme inhibition assay, p99 AmpC (nitrocefin substrate); format: biochemical
T3 construct: made in house; host or cells: E. coli BL21(DE3)
T3 sequence (P05364 21-381): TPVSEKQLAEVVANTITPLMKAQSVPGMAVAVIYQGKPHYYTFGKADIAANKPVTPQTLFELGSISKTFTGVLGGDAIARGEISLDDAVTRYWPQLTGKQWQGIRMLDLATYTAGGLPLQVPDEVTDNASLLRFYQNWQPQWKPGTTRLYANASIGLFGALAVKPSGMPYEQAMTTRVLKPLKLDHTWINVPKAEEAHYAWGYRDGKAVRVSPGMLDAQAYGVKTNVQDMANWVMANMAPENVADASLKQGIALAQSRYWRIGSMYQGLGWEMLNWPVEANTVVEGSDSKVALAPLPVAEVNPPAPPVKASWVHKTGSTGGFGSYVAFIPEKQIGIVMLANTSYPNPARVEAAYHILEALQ
Method in brief: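 Untagged enzyme from E. coli BL21(DE3), purified by Capto S then Superdex 75; 15 min 37 °C preincubation with inhibitor; 10 min kinetic read; IC50 vs uninhibited wells.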

[5] = system: E. cloacae expressing the Class C P99; assay: Broth microdilution MIC assay with ceftazidime, E. cloacae P99; format: cell-based; details: Fixed CAZ (ceftazidime) 4 μg/mL; E. cl. 144200 p99 AmpC
Method in brief: as §1

SHV-5 = target: T4, SHV-5 (Klebsiella pneumoniae, UniProt P0A3M1); assay: β-lactamase enzyme inhibition assay, SHV-5 (cefotaxime substrate); format: biochemical
T4 construct: made in house; host or cells: E. coli BL21(DE3)
T4 sequence (P0A3M1 22-286): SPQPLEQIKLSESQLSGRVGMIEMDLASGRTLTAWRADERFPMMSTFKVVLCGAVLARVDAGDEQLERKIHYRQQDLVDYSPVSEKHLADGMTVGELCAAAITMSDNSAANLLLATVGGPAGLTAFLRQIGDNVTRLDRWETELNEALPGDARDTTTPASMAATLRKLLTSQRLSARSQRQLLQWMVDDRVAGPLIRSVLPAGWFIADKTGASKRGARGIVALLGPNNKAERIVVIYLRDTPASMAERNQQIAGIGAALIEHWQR
Method in brief: as §2

[6] = system: K. pneumoniae producing the Class D carbapenemase OXA-48; assay: Broth microdilution MIC assay with meropenem, K. pneumoniae OXA-48; format: cell-based; details: Fixed Mero (meropenem) 4 μg/mL; K. p. 11978 OXA-48
Method in brief: as §1

OXA-48 = OXA-48 (UniProt Q6XEC0); assay: β-lactamase enzyme inhibition assay, Class D oxacillinase; format: biochemical; details: read-out: OXA-48

Row | SMILES | MIC (μg/mL) of Exemplary Compounds in presence of fixed β-lactams: K. p. A-1797 KPC-2 VIM-4 [1] | IC50 (VIM-2) [nM] | MIC (μg/mL) of Exemplary Compounds in presence of fixed β-lactams: K. p. 156319 KPC-3 [2] | MIC (μg/mL) of Exemplary Compounds in presence of fixed β-lactams: E. coli ESBL4 CTX-M-15 [3] | IC50 (KPC-2) [nM] | MIC (μg/mL) of Exemplary Compounds in presence of fixed β-lactams: P. aerug. 2775 VIM-2 [4] | IC50 (AmpC) [nM] | MIC (μg/mL) of Exemplary Compounds in presence of fixed β-lactams: E. cl. 144200 p99 AmpC [5] | IC50 (SHV-5) [nM] | MIC (μg/mL) of Exemplary Compounds in presence of fixed β-lactams: K. p. 11978 OXA-48 [6] | IC50 (OXA-48) [nM]
1 | NCc1nnn(CC(=O)N[C@H]2Cc3cccc(C(=O)O)c3OB2O)c1Cl [Example 107, (R)-3-(2-(4-(aminomethyl)-5-chloro-1H-1,2,3-triazol-1-yl)acetamido)-2-hydroxy-3,4-dihydro-2H-benzo[e][1,2]oxaborinine-8-carboxylic acid] | C (C represents an MIC of <1 μg/mL) | < 100 | C (C represents an MIC of <1 μg/mL) | C (C represents an MIC of <1 μg/mL) | < 100 | C (C represents an MIC of <1 μg/mL) | < 100 | B (B represents an MIC between 1 and 16 μg/mL inclusive) | 100 to 1000 | B (B represents an MIC between 1 and 16 μg/mL inclusive) | < 100
2 | NCc1nnn(CC(=O)N[C@H]2Cc3cccc(C(=O)O)c3OB2O)c1-c1ccsc1 [Example 108, (R)-3-(2-(4-(aminomethyl)-5-(thiophen-3-yl)-1H-1,2,3-triazol-1-yl)acetamido)-2-hydroxy-3,4-dihydro-2H-benzo[e][1,2]oxaborinine-8-carboxylic acid] | C (C represents an MIC of <1 μg/mL) | < 100 | B (B represents an MIC between 1 and 16 μg/mL inclusive) | C (C represents an MIC of <1 μg/mL) | < 100 | C (C represents an MIC of <1 μg/mL) | < 100 | B (B represents an MIC between 1 and 16 μg/mL inclusive) | 100 to 1000 | B (B represents an MIC between 1 and 16 μg/mL inclusive) | < 100
3 | NCCCC[C@@H](C(=O)N[C@H]1Cc2cccc(C(=O)O)c2OB1O)n1cc(CN)nn1 [Example 113, (R)-3-((S)-6-amino-2-(4-(aminomethyl)-1H-1,2,3-triazol-1-yl)hexanamido)-2-hydroxy-3,4-dihydro-2H-benzo[e][1,2]oxaborinine-8-carboxylic acid] | C (C represents an MIC of <1 μg/mL) | < 100 | B (B represents an MIC between 1 and 16 μg/mL inclusive) | C (C represents an MIC of <1 μg/mL) | 100 to 1000 | C (C represents an MIC of <1 μg/mL) | < 100 | C (C represents an MIC of <1 μg/mL) | 1000 to 10000 | A (A represents an MIC>16 μg/mL) | 100 to 1000
4 | NCc1cn(C[C@H](N)C(=O)N[C@H]2Cc3cccc(C(=O)O)c3OB2O)nn1 [Example 114, (R)-3-((S)-2-amino-3-(4-(aminomethyl)-1H-1,2,3-triazol-1-yl)propanamido)-2-hydroxy-3,4-dihydro-2H-benzo[e][1,2]oxaborinine-8-carboxylic acid] | B (B represents an MIC between 1 and 16 μg/mL inclusive) | 1000 to 10000 | C (C represents an MIC of <1 μg/mL) | C (C represents an MIC of <1 μg/mL) | 100 to 1000 | C (C represents an MIC of <1 μg/mL) | < 100 | C (C represents an MIC of <1 μg/mL) | 10000 to 100000 | B (B represents an MIC between 1 and 16 μg/mL inclusive) | 1000 to 10000
5 | CSCC[C@@H](C(=O)N[C@H]1Cc2cccc(C(=O)O)c2OB1O)n1cc(CN)nn1 [Example 115, (R)-3-((S)-2-(4-(aminomethyl)-1H-1,2,3-triazol-1-yl)-4-(methylthio)butanamido)-2-hydroxy-3,4-dihydro-2H-benzo[e][1,2]oxaborinine-8-carboxylic acid] | B (B represents an MIC between 1 and 16 μg/mL inclusive) | 100 to 1000 | B (B represents an MIC between 1 and 16 μg/mL inclusive) | C (C represents an MIC of <1 μg/mL) | 100 to 1000 | B (B represents an MIC between 1 and 16 μg/mL inclusive) | < 100 | C (C represents an MIC of <1 μg/mL) | 100 to 1000 | B (B represents an MIC between 1 and 16 μg/mL inclusive) | 1000 to 10000
6 | NCCn1cnnc1CC(=O)N[C@H]1Cc2cccc(C(=O)O)c2OB1O [Example 117, (R)-3-(2-(4-(2-aminoethyl)-4H-1,2,4-triazol-3-yl)acetamido)-2-hydroxy-3,4-dihydro-2H-benzo[e][1,2]oxaborinine-8-carboxylic acid] | B (B represents an MIC between 1 and 16 μg/mL inclusive) | 100 to 1000 | C (C represents an MIC of <1 μg/mL) | C (C represents an MIC of <1 μg/mL) | 100 to 1000 | C (C represents an MIC of <1 μg/mL) | < 100 | C (C represents an MIC of <1 μg/mL) | < 100 | B (B represents an MIC between 1 and 16 μg/mL inclusive) | 100 to 1000
7 | NCCn1cnc(CC(=O)N[C@H]2Cc3cccc(C(=O)O)c3OB2O)n1 [Example 118, (R)-3-(2-(1-(2-aminoethyl)-1H-1,2,4-triazol-3-yl)acetamido)-2-hydroxy-3,4-dihydro-2H-benzo[e][1,2]oxaborinine-8-carboxylic acid] | B (B represents an MIC between 1 and 16 μg/mL inclusive) | 1000 to 10000 | C (C represents an MIC of <1 μg/mL) | C (C represents an MIC of <1 μg/mL) | 100 to 1000 | C (C represents an MIC of <1 μg/mL) | < 100 | C (C represents an MIC of <1 μg/mL) | 100 to 1000 | B (B represents an MIC between 1 and 16 μg/mL inclusive) | 100 to 1000
8 | NCCn1ncnc1CC(=O)N[C@H]1Cc2cccc(C(=O)O)c2OB1O [Example 119, (R)-3-(2-(1-(2-aminoethyl)-1H-1,2,4-triazol-5-yl)acetamido)-2-hydroxy-3,4-dihydro-2H-benzo[e][1,2]oxaborinine-8-carboxylic acid] | B (B represents an MIC between 1 and 16 μg/mL inclusive) | 100 to 1000 | C (C represents an MIC of <1 μg/mL) | C (C represents an MIC of <1 μg/mL) | 100 to 1000 | C (C represents an MIC of <1 μg/mL) | < 100 | C (C represents an MIC of <1 μg/mL) | < 100 | B (B represents an MIC between 1 and 16 μg/mL inclusive) | 100 to 1000
